For data set [1], the system named is T. cruzi Dm28c epimastigotes. Briefly: T. cruzi epimastigotes assay (resazurin). It counts as cell-based. The conditions noted are these: Trypanosoma cruzi, read-out: T. cruzi Dm28c EC50 (EPI). Here is the method:
The exponential growth phase of epimastigotes were treated with different concentrations of drugs or 0.1% DMSO as negative control and incubated for 3 days at 28 °C. The viability of parasites was quantified with resazurin as described in the T. brucei assay.

Data set [2] in a line: Host cell toxicity in the T. cruzi amastigote assay. It counts as cell-based. The conditions noted are these: human, amastigote host cells; read-out: T. cruzi Dm28c CC50 (U2OS). The procedure: (§1) U2OS human osteosarcoma cells were maintained in DMEM supplemented with high glucose, 10% FBS, and 1% P/S at 37 °C with 5% CO2 in air. […] Cell images were acquired by an automated image analyzer (Operetta, Perkin Elmer Technology, Waltham, MA, USA); analysis included at least 1000 cells in five fields per well. For the imaging of infected cells and parasites, Draq-5 was observed under a 20× air objective. An image analysis algorithm (Columbus, Perkin Elmer Technology) was used to detect the Draq-5 signal in the nuclei of cells and parasites as described in a previous article and shown in Supplementary Figure S1 [20]. The number of parasites was defined by the value of the number of parasites in infected cells of the acquired image.

For data set [3], the system named is T. b. brucei Lister strain 427 bloodstream form (BSF). Briefly: In vitro activity assay for T. brucei (resazurin growth inhibition). To be noted: Trypanosoma brucei. It counts as cell-based.
Data set [4] concerns intracellular T. cruzi Dm28c amastigotes in U2OS. Briefly: T. cruzi intracellular amastigotes assay in U2OS (image based). The data set is classed as cell-based. To be noted: Trypanosoma cruzi; for EC50: read-out: T. cruzi Dm28c EC50 (AMA). Here is the method:
as §1

The subject of data set [5] is L. donovani promastigotes. Briefly: L. donovani promastigotes assay (resazurin). The data set is classed as cell-based. To be noted: for EC50: read-out: L. donovani EC50 (PRO).
The next data set concerns T. cruzi. Also noted: method as in earlier work. To be noted: amiodarone acting alone; reported previously; ref 5 (b3); cited from earlier work.
In a further data set the test system is L. donovani amastigotes. Briefly: L. donovani (VL) in vivo mouse model, liver LDU. The conditions noted are these: 30 mg/kg. On the set-up: species or system BALB/c mice. Here is the method: BALB/c mice (n = 5) were injected with 2 × 10^7 hamster spleen-derived L. donovani amastigotes via the retro-orbital venous sinus route. From day 7 post-infection, groups of mice were treated using the drug vehicle only, miltefosine (30 mg/kg), or SQ109 (30, 50, 100 mg/kg). On day 16 post-infection, all animals were humanely euthanized and assessed microscopically using Giemsa-stained liver imprints. […] The LDU values for the drug-treated samples were compared to those of the untreated samples.

The test system of data set [6] is intracellular L. donovani amastigotes in THP-1. Briefly: L. donovani intracellular amastigotes assay in THP-1 (image based). It counts as cell-based. To be noted: Leishmania donovani, 72 h; differentiated THP-1 host cells, 3 days of compound incubation; Figure 2F.
The subject of data set [7] is THP-1 human monocyte cell line. Briefly: Host cell toxicity in the L. donovani amastigote assay. The conditions noted are these: 3 days of compound incubation; Figure 2F. It counts as cell-based. Here is the method: The THP-1 human monocyte cell line was grown in RPMI-1640 medium (Welgene, Gyeongsangbuk-do, Republic of Korea) supplemented with 10% FBS and 1% P/S. For differentiation, THP-1 cells were treated for 3 days with 50 ng/mL of PMA [20]. […] An image analysis was performed as described in the T. cruzi assay (Figure S2).

For a further data set, the system named is T. cruzi Dm28c. Briefly: T. cruzi acute in vivo mouse model. Also noted: species or system BALB/c mice. To be noted: 100 mg/kg p.o. From the text: BALB/c mice were infected with TCT of T. cruzi Dm28c (10^7 cells) by i.p. injection. Five days post-infection, infected mice were sacrificed to collect BSF of T. cruzi. BALB/c mice were intraperitoneally infected with BSF of T. cruzi Dm28c (5 × 10^4 cells). Five days post-infection, BALB/c mice were infected with previously collected 2nd-round BSF cells (3 × 10^4 cells). Mice were divided into groups (n = 10) and treated orally with drugs for 5 consecutive days for 2 weeks by starting from day 2 post-infection administration of DPBS, 100 mg/kg of benznidazole, or 100 mg/kg of SQ109 via p.o. route, respectively. Parasitemia was evaluated every 2 days for 5 weeks by blood collection from the mouse tail vein, and survival was monitored for 2 months. Mice showing impaired health status were euthanized.

Setting [8] is: bloodstream forms, read-out: T. brucei BSF EC50 (converted).
Setting [9] is: Leishmania donovani, promastigotes.

Read-outs that look alike come from different tables or passages of the source. A value given as a limit tells only on which side of the number the result lay.

With `CC(C)=CCC/C(C)=C/CN` [Compound 17], the 50% effective concentration (EC50) was > 100 µM in data set [1] (epimastigotes), 32 µM in [3] (setting [8]), 40 µM in [4] (amastigotes in U2OS) and 21 µM in [5] (setting [9]). The CC50 at 3 days in data set [2] is > 100 µM.
Consider `CC(C)=CCC/C(C)=C/C(=O)O` [Compound 14], for which the EC50 in [1] (epimastigotes) was > 100 µM; in data set [3] (setting [8]), 13 µM; in data set [4] (amastigotes in U2OS) it was > 100 µM; in data set [5] (setting [9]), > 100 µM. The CC50 at 3 days in [2] is > 100 µM.
In the case of `NCCNC1C2CC3CC(C2)CC1C3` (centres unmarked) [Compound 7], the EC50 in data set [1] (epimastigotes) was 56 µM; in data set [3] (setting [8]), 4.6 µM; in data set [4] (amastigotes in U2OS), 25 µM; in data set [5] (setting [9]), 22 µM. Further, the CC50 at 3 days in data set [2] is > 100 µM.
Consider `CC(C)=CCC/C(C)=C/CNCCNC1C2CC3CC1CC(O)(C3)C2` (centres unmarked) [Compound 22], for which the half-maximal effective concentration (EC50) in data set [1] (epimastigotes) is 23 µM; in data set [3] (setting [8]), 2.9 µM; in data set [4] (amastigotes in U2OS), 7.5 µM; in data set [5] (setting [9]) it was 3.54 µM; in [5] (promastigotes) it was 3.5 µM. The CC50 at 3 days in data set [2] came to 29 µM.
Turning to `ON=C1C2CC3CC(C2)CC1C3` [Compound 16], the EC50 was > 100 µM in [1] (epimastigotes), > 200 µM in data set [3] (setting [8]), > 100 µM in data set [4] (amastigotes in U2OS) and > 100 µM in data set [5] (setting [9]). The CC50 at 3 days in [2] was > 100 µM.
For `CCCCc1oc2ccccc2c1C(=O)c1cc(I)c(OCCN(CC)CC)c(I)c1` [amiodarone], the “survival in T. cruzi infection” value in the data set with T. cruzi is 40%.
Consider `CCCCCCCCCCCCCCCCOP(=O)([O-])OCC[N+](C)(C)C` [miltefosine], for which the “parasite burden in liver (LDU)” value with L. donovani amastigotes (5 days of treatment) amounted to 142 ± 24 LDU. Further, the parasite reduction with L. donovani amastigotes (versus vehicle-treated group) was 87.5%. In addition, the IC50 was 0.171 µM in data set [5] (Leishmania donovani, 72 h, Figure 2E, read-out: IC50, L. donovani promastigote growth) and 1.51 µM in data set [6]. For the same compound, in [7], the “host cell (THP-1) toxicity, in words” value is on record as “no host cell toxicity was observed at the highest tested dose”.
Regarding `CC(C)=CCC/C(C)=C/CNCCN` [Compound 20], the EC50 in [1] (epimastigotes) was > 100 µM; in data set [3] (setting [8]), 2.2 µM; in data set [4] (amastigotes in U2OS) it was > 100 µM; in data set [5] (setting [9]) it was 6 µM. In addition, the CC50 at 3 days in [2] was > 100 µM.
For `CC(C)=CCC/C(C)=C/CNCCNC1C2CC3CC(C2)C(O)C1C3` (centres unmarked) [Compound 24], the EC50 in data set [1] (epimastigotes) is 14 µM; in [3] (setting [8]) it was 1.8 µM; in [4] (amastigotes in U2OS), 3.2 µM; in data set [5] (setting [9]), 1.1 µM. Also, in data set [2], the CC50 at 3 days stood at 14 µM.
Regarding `O=C(Cn1ccnc1[N+](=O)[O-])NCc1ccccc1` [benznidazole], in data set [4] (72 h, U2OS host cells, 3 days of compound incubation, Figure 2D, read-out: IC50, intracellular T. cruzi amastigote survival), the concentration for half-maximal inhibition (IC50) turned out to be 1.71 µM. For the same compound, the “survival of T. cruzi infected mice, in words” value with T. cruzi Dm28c (40 days after infection) is on record as “protected all the mice from death”. Besides, the “parasitemia, in words” value in the data set with T. cruzi Dm28c (entire experimental period) was “complete suppression of parasitemia”.
Turning to `N=C(N)c1ccc(OCCCCCOc2ccc(C(=N)N)cc2)cc1` [pentamidine, reference compound], the IC50 in data set [3] (3 days (72 h) of compound incubation, Figure 2A, read-out: IC50, T. brucei trypomastigote viability) was determined as 0.15 µM.
For `CC(C)=CCC/C(C)=C/CNCCNC1C2CC3CC1CC(C2)C3O` (centres unmarked) [Compound 23], the EC50 in [1] (epimastigotes) is 20 µM; in [3] (setting [8]) it was 1.8 µM; in [4] (amastigotes in U2OS) it was 4.3 µM; in data set [5] (setting [9]), 2.3 µM. In [2], the CC50 at 3 days came to 17 µM.
In the case of `CC(C)=CCCC1(C)CC=NO1` (centres unmarked) [Compound 15b], the concentration giving a half-maximal response (EC50) was > 100 µM in data set [1] (epimastigotes), > 200 µM in data set [3] (setting [8]), > 100 µM in [4] (amastigotes in U2OS) and > 100 µM in [5] (setting [9]). In addition, in [2], the CC50 at 3 days was > 100 µM.
For `O=C1C2CC3CC(C2)CC1C3` [Compound 19], the EC50 in [1] is > 100 µM; in data set [3] (read-out: T. brucei BSF EC50), > 200 µM; in data set [4] (U2OS), > 100 µM; in data set [5] (Leishmania donovani) it was > 100 µM. In addition, the cytotoxic concentration (CC50) at 3 days in [2] is > 100 µM.
Consider `NC1C2CC3CC(C2)CC1C3` (centres unmarked) [Compound 18], for which the EC50 was > 100 µM in [1] (epimastigotes), 71 µM in data set [3] (setting [8]), 50 µM in data set [4] (amastigotes in U2OS) and 51 µM in [5] (setting [9]). In addition, the 50% cytotoxic concentration (CC50) at 3 days in [2] is > 100 µM.
`CC(C)=CCC/C(C)=C/CNCCNC1C2CC3CC(C2)CC1(O)C3` (centres unmarked) [Compound 21]: the 50% effective concentration (EC50) in data set [1] (epimastigotes) was 14 µM; in data set [3] (setting [8]), 3.2 µM; in data set [4] (amastigotes in U2OS), 3 µM; in [5] (setting [9]), 1.27 µM; in data set [5] (promastigotes) it was 1.3 µM. Further, the 50% cytotoxic concentration (CC50) at 3 days in data set [2] is 6.8 µM.
For `CC(C)=CCC/C(C)=C/C=O` [Compound 13], the EC50 in [1] (epimastigotes) is > 100 µM; in data set [3] (setting [8]) it was 2.3 µM; in data set [4] (amastigotes in U2OS) it was > 100 µM; in data set [5] (setting [9]), > 100 µM. For the same compound, the CC50 at 3 days in data set [2] is > 100 µM.
As to `CC(C)=CCCC(C)=CC=NO` [Compound 15a], the half-maximal effective concentration (EC50) in data set [1] (epimastigotes) is > 100 µM; in data set [3] (setting [8]) it was > 200 µM; in data set [4] (amastigotes in U2OS), > 100 µM; in [5] (setting [9]), > 100 µM. Also, in data set [2], the CC50 at 3 days was > 100 µM.
`C/C(=C\CC/C(C)=C/CNCCNC1C2CC3CC(C2)CC1C3)CO` (centres unmarked) [Compound 9]: the 50% effective concentration (EC50) in data set [1] (epimastigotes) was 28 µM; in data set [3] (setting [8]), 5.4 µM; in [4] (amastigotes in U2OS), 4.9 µM; in data set [5] (setting [9]) it was 2.9 µM. In addition, the half-maximal cytotoxic concentration (CC50) at 3 days in data set [2] turned out to be 27 µM.
`C/C(=C\CNCCNC1C2CC3CC(C2)CC1C3)CCC(=O)C(C)C` (centres unmarked) [Compound 12]: the EC50 in [1] (epimastigotes) is 45 µM; in data set [3] (setting [8]), 2 µM; in data set [4] (amastigotes in U2OS), 6.9 µM; in data set [5] (setting [9]) it was 0.55 µM. The CC50 at 3 days in data set [2] came to 32 µM.

The record behind these values is article PMC8944987, “In Vivo Efficacy of SQ109 against Leishmania donovani, Trypanosoma spp. and Toxoplasma gondii and In Vitro Activity of SQ109 Metabolites” (Biomedicines, 2022).
